PubChem BioAssay (NCI)
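A five-concentration, 48-hour dose response in 96-well plates underlies each endpoint, interpolated linearly between surrounding concentrations. TGI is the concentration that stops growth completely.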

What was measured:
Experiment in all cases: NCI-60 cell line screen, 48 h
CAKI-1 renal = test system: CAKI-1 renal
HCC-2998 colon = test system: HCC-2998 colon
HOP-92 NSCLC = test system: HOP-92 NSCLC
KM12 colon = test system: KM12 colon
LOX IMVI melanoma = test system: LOX IMVI melanoma
MOLT-4 leukemia = test system: MOLT-4 leukemia
NCI-H460 lung = test system: NCI-H460 lung
NCI/ADR-RES ovarian = test system: NCI/ADR-RES ovarian
OVCAR-3 ovarian = test system: OVCAR-3 ovarian
RPMI-8226 leukemia = test system: RPMI-8226 leukemia
RXF 393 renal = test system: RXF 393 renal
SF-295 CNS = test system: SF-295 CNS
SN12C renal = test system: SN12C renal
SW-620 colon = test system: SW-620 colon
U251 CNS = test system: U251 CNS
UACC-257 melanoma = test system: UACC-257 melanoma
ACHN renal = test system: ACHN renal
DU-145 prostate = test system: DU-145 prostate
T-47D breast = test system: T-47D breast
SR leukemia = test system: SR leukemia

Structure (SMILES) | TGI (CAKI-1 renal) [µM] | TGI (HCC-2998 colon) [µM] | TGI (HOP-92 NSCLC) [µM] | TGI (KM12 colon) [µM] | TGI (LOX IMVI melanoma) [µM] | TGI (MOLT-4 leukemia) [µM] | TGI (NCI-H460 lung) [µM] | TGI (NCI/ADR-RES ovarian) [µM] | TGI (OVCAR-3 ovarian) [µM] | TGI (RPMI-8226 leukemia) [µM] | TGI (RXF 393 renal) [µM] | TGI (SF-295 CNS) [µM] | TGI (SN12C renal) [µM] | TGI (SW-620 colon) [µM] | TGI (U251 CNS) [µM] | TGI (UACC-257 melanoma) [µM] | TGI (ACHN renal) [µM] | TGI (DU-145 prostate) [µM] | TGI (T-47D breast) [µM] | TGI (SR leukemia) [µM]
COc1cc2c(cc1OC)-c1c3c(cc4c1[C@@H](C2)N(C)CC4)OCO3 | 51.4 | 23.8 | 32.4 | 45.1 | 75 | 12 | 14.3 | 30.2 | 44.6 | 22.8 | 19.2 | 16.7 | 39 | 30.3 | 48.8 | 26 | – | – | – | –
CC(=O)O[C@H]1C(=O)[C@@]2(C)[C@H]([C@H](OC(=O)c3ccccc3)[C@]3(O)C[C@H](OC(=O)[C@H](O)[C@@H](NC(=O)CC(C)(C)C)c4ccccc4)C(C)=C1C3(C)C)C1(OC(C)=O)CO[C@@H]1C[C@@H]2O (stereo not given in full) | > 10 | 0.0418 | – | – | > 10 | > 3.96 | > 10 | > 10 | – | – | 0.148 | – | > 10 | > 10 | – | > 10 | > 10 | 0.0833 | > 10 | –
CC1(C)C2CCC3(C2)CS(=O)(=O)N2OC231 (stereo not given) | 30.4 | > 100 | 25.2 | 41.9 | 31.1 | – | 37.1 | – | 33.2 | > 100 | – | > 100 | 31.6 | 32.9 | > 100 | 33.1 | 29.4 | – | – | > 100
O=C1c2cccc3cccc(c23)C(=O)N1CCCNOCCONCCCN1C(=O)c2cccc3cccc(c23)C1=O | > 100 | > 100 | > 100 | > 100 | > 100 | > 100 | > 100 | > 100 | > 100 | 74.4 | > 100 | > 100 | – | > 100 | > 100 | > 100 | > 100 | > 100 | – | > 100
CCCCOCn1c(=O)[nH]c(=O)c2cc(Br)ccc21 | 46.9 | > 100 | > 100 | > 100 | > 100 | > 100 | – | 40.3 | > 100 | – | > 100 | > 100 | > 100 | > 100 | > 100 | > 100 | 42.1 | > 100 | – | > 100
O=C(OC[C@H]1O[C@@H](OC(=O)c2cc(O)c(O)c(O)c2)[C@H](OC(=O)c2cc(O)c(O)c(O)c2)[C@@H](OC(=O)c2cc(O)c(O)c(O)c2)[C@@H]1OC(=O)c1cc(O)c(O)c(O)c1)c1cc(O)c(O)c(O)c1 | 85.6 | 12.3 | 37.4 | 6.65 | 4.41 | 86.5 | 24.8 | – | 17.7 | > 100 | 31.2 | 20.3 | > 100 | > 100 | 54.3 | 65 | 30.1 | – | – | > 100
C=CC[C@@]1(C(=O)OC)[C@H](Sc2ccccc2)C1(C)C | > 100 | 96.2 | 76.4 | > 100 | – | 34.3 | > 100 | > 100 | > 100 | 26.4 | – | > 100 | 76.8 | > 100 | > 100 | 96.9 | > 100 | > 100 | > 100 | –
Cc1ccc(N=Nc2c(C)c(C#N)c(=S)n(C3OC(CO)C(O)C(O)C3O)c2-c2ccccc2)cc1 (stereo not given) | 92.6 | > 100 | – | 58.9 | 31.2 | 38.9 | > 100 | > 100 | 41 | > 100 | 50.6 | 69.5 | > 100 | 36.3 | 30.8 | > 100 | > 100 | > 100 | 57.2 | –
C[C@]12CC[C@H](O)CC1=CC[C@@H]1[C@@H]2CC[C@]2(C)/C(=N/OCCN3CCCC3)CC[C@@H]12 | 40.7 | 37.1 | – | 26.9 | 33.4 | 34.8 | 24.8 | 52.7 | 31.1 | 38.4 | 29.3 | 40.6 | 93.6 | 31.1 | 36.2 | 27.7 | 68.2 | – | – | 35.5
OC12CC/C(=N/OCc3ccccc3)CC1c1ccccc12 (stereo not given) | > 100 | > 100 | – | > 100 | > 100 | > 100 | > 100 | – | > 100 | > 100 | > 100 | > 100 | > 100 | – | > 100 | > 100 | > 100 | – | – | –
Nc1cc(N2CCCC2)nc(=O)n1Cc1ccccc1 | > 100 | – | > 100 | > 100 | > 100 | > 100 | > 100 | > 100 | – | > 100 | – | > 100 | > 100 | > 100 | > 100 | > 100 | > 100 | > 100 | – | > 100
O=c1[nH]nc(Cc2ccccc2)n1-n1cnnc1 | – | > 100 | > 100 | > 100 | > 100 | > 100 | – | > 100 | > 100 | > 100 | > 100 | > 100 | > 100 | > 100 | > 100 | > 100 | > 100 | > 100 | – | > 100
N#CC(NNC(=O)c1ccccc1O)c1cccc(O)c1 (stereo not given) | > 100 | – | > 100 | > 100 | > 100 | > 100 | > 100 | – | > 100 | > 100 | 85.3 | > 100 | > 100 | > 100 | > 100 | > 100 | > 100 | – | – | > 100
CC(=O)OCC=C(CCl)CCC(Br)C(C)(C)Br (mixture of isomers) | > 10 | > 10 | – | > 10 | > 10 | > 10 | > 10 | > 10 | > 10 | > 10 | > 10 | > 10 | > 10 | > 10 | > 10 | > 10 | > 10 | > 10 | > 10 | –
O=C(NCc1ccc(Cl)cc1)c1cc2sccc2nc1C(F)(F)F | > 100 | – | > 100 | > 100 | – | > 100 | – | > 100 | 98.4 | > 100 | 67.4 | > 100 | > 100 | > 100 | 44.6 | > 100 | 45.8 | – | > 100 | > 100
Cc1nc(C(N)=S)sc1C(=O)C/C(=N/N)C(=O)Nc1cccc(Cl)c1C | > 100 | > 100 | > 100 | > 100 | > 100 | > 100 | > 100 | > 100 | > 100 | > 100 | > 100 | > 100 | > 100 | > 100 | > 100 | > 100 | > 100 | – | > 100 | > 100
S=C(S)NCC1CCC(CNC(=S)S)CC1 (stereo not given) | 30.6 | 48.3 | – | 42.5 | 40.8 | 65.2 | > 100 | > 100 | 30.3 | > 100 | 40.6 | > 100 | 44 | > 100 | 43 | 87.1 | 39.2 | 63.4 | 38.9 | –
CCO/C(O)=C(/C(=N)N1CCCC1)C(=O)Nc1cccc(C(F)(F)F)c1 | > 100 | > 100 | – | > 100 | > 100 | > 100 | > 100 | > 100 | > 100 | > 100 | 53.6 | > 100 | > 100 | > 100 | > 100 | > 100 | > 100 | > 100 | > 100 | –
Cc1ccc(C(=O)/C(C#N)=C/Nc2c(C)n(C)n(-c3ccccc3)c2=O)cc1 | > 100 | > 100 | > 100 | > 100 | > 100 | > 100 | > 100 | – | > 100 | > 100 | > 100 | > 100 | > 100 | > 100 | > 100 | > 100 | > 100 | > 100 | > 100 | > 100
Cc1ccc(S(=O)(=O)c2c(O)c3ccccc3n(C)c2=O)cc1 | > 100 | – | > 100 | > 100 | – | – | > 100 | > 100 | > 100 | > 100 | > 100 | > 100 | > 100 | > 100 | > 100 | > 100 | – | > 100 | > 100 | –
Cc1sc2ccccc2[n+]1CCC(=O)O | > 100 | – | > 100 | > 100 | > 100 | – | > 100 | > 100 | > 100 | > 100 | > 100 | > 100 | > 100 | > 100 | > 100 | > 100 | > 100 | > 100 | > 100 | –
COC(=O)[C@@]12CCCC(=O)[C@@H]1[C@H]1CCCC[C@H]12 | > 100 | > 100 | > 100 | > 100 | > 100 | > 100 | > 100 | > 100 | > 100 | > 100 | > 100 | > 100 | > 100 | > 100 | > 100 | > 100 | > 100 | > 100 | – | > 100
CC(C)OP(=O)(OC(C)C)C(C(C)C)N(C)/C(F)=N/C(F)(F)F (stereo not given) | > 100 | > 100 | > 100 | > 100 | > 100 | > 100 | > 100 | > 100 | > 100 | – | > 100 | > 100 | > 100 | > 100 | > 100 | > 100 | > 100 | > 100 | > 100 | –
O=C(NCCCNCCNC(=O)c1cc(-c2ccccc2)nc2ccccc12)c1cc(-c2ccccc2)nc2ccccc12 | 5.45 | 3.11 | 6.37 | 3.55 | 2.95 | 4.31 | 3.31 | 4.12 | 3.6 | – | – | 3.19 | 3.24 | 3.09 | 3.24 | 3.08 | 3.3 | – | – | 8.73
CCc1ccc2c(c1)CC1(C2)Cc2cc3c(cc2C1)C(=O)CC3 (stereo not given) | – | 47.1 | 52.7 | > 100 | 37 | – | – | > 100 | 42.8 | 50.7 | > 100 | 65.3 | 89.6 | – | > 100 | 51.6 | 63.9 | – | 85 | –
C[n+]1c2ccccc2c(C(=O)Nc2ccc(S(=O)(=O)N=C(N)N)cc2)c2ccccc21 | > 100 | > 100 | – | > 100 | > 100 | > 100 | > 100 | > 100 | > 100 | > 100 | – | > 100 | > 100 | > 100 | > 100 | > 100 | > 100 | > 100 | > 100 | –
